The text below walks through data of patent publication US8680081B2, “Prophylactic treatment of migraine” (priority 2000, dated 2014).

Assay [1] in a line: Prophylactic treatment of migraine by regular administration, patient case reports. It counts as in vivo, human. How it is done:
The method for prophylactic treatment includes regular administration of a therapeutically effective amount of a combination comprising a cyclooxygenase-2 inhibitor and acetylsalicylic acid or active derivative. Administration of the combination including a cyclooxygenase-2 inhibitor may include administration of one or more cyclooxygenase-2 inhibitors.
The combination is administered regularly, meaning that the combination is administered periodically or aperiodically over a period of several days or weeks, in an effort to prevent migraine attacks, and is not merely administered in response or reaction to migraine symptoms. Regular administration may include once-daily administration of each agent, administration on alternate days, or any other periodic or aperiodic schedule that is determined to be effective as a planned course of treatment for preventing migraine.
A patient with an established history of recurrent migraine was treated with a daily oral dose of 25 milligrams of VIOXX (rofecoxib tablets, Merck & Co, Inc., Whitehouse Station, N.J.). […]
A patient with an established history of recurrent migraine was treated with a daily oral dose of 200 milligrams of CELEBREX (celecoxib capsules, G.D. Searle & Co., Chicago, Ill.).
A patient with a well-established history of recurrent migraine attacks heralded by an aura of dysphasia (i.e., difficulty in finding words) begins taking 25-50 milligrams of rofecoxib at the onset of the dysphasic symptoms. […] Because they have lately suffered more than four migraine attacks per month, on the advice of their physician they continue daily dosing of 12.5-25 milligrams of rofecoxib over time. […]

Assay [2] is described as follows: Targeted prophylactic treatment of migraine before a time window, trigger or attack, patient case reports. It counts as in vivo, human.
From the text: In another embodiment, the invention provides a method for targeted prophylactic treatment of a migraine condition. The method includes determining a time window or selected time period in which a patient desires to be free from migraine; and administering to the patient, at a time prior to the determined time window, a therapeutically effective amount of a cyclooxygenase-2 inhibitor, either alone or in combination with acetylsalicylic acid or active derivative, to prevent or reduce migraine symptoms during the time window.
Prior to the determined time window, a therapeutically effective amount of a cyclooxygenase-2 inhibitor is administered to the patient. By “prior,” it is meant that the administration is temporally before the determined time window, but sufficiently close in time so that the prophylactic effect of the cyclooxygenase-2 inhibitor is experienced throughout most or all of the determined time window.
A patient with an established history of migraine brought on by glare associated with an ophthalmic operating room microscope was treated with 6 milligrams of IMITREX by injection (Glaxo Wellcome Inc.), and an oral dose of 12.5 to 25 milligrams of VIOXX (Merck & Co, Inc.) the night before a scheduled ophthalmic operation.
A patient with an established history of migraine brought on by glare associated with repeated use of a slit lamp biomicroscope was treated with an oral dose of 12.5 to 25 milligrams of VIOXX (Merck & Co, Inc.) the night before a scheduled clinic.
A patient with an established history of migraine brought on by glare associated with repeated use of a slit lamp biomicroscope was treated with an oral dose of 12.5 to 25 milligrams of VIOXX (Merck & Co, Inc.) and 325 milligrams aspirin (over-the-counter aspirin tablets) the night before a scheduled clinic.
A patient with an established history of migraine brought on by occasional consumption of red wine (as a beverage or in a sauce or dressing) was treated with an oral dose of 12.5 to 25 milligrams of VIOXX (Merck & Co, Inc.) on the same day as such consumption before migraine attack symptoms are evident.
A patient with an established history of migraine brought on by occasional consumption of red wine (as a beverage or in a sauce or dressing) was treated with an oral dose of 12.5 to 25 milligrams of VIOXX (Merck & Co, Inc.) and 162.5 milligrams aspirin (over-the-counter aspirin tablets) on the same day as such consumption before migraine attack symptoms are evident.
(§1) A patient with a well-established history of recurrent migraine attacks learns to recognize their prodromal symptoms of altered mood, irritability, fatigue, and craving for sweets which typically occur 3 to 24 hours prior to the fully developed phase of their migraine. They learn over time that these prodromal symptoms eventually lead to a migraine attack in most cases. Their migraine attacks typically include unusual sensitivity to light and sound, difficulty concentrating, headache, and less commonly, nausea. As soon as they recognize the prodromal symptoms, they take a one-time dose of 25-50 milligrams of rofecoxib, followed by 12.5-25 milligrams of rofecoxib daily.
as §1, with “rofecoxib and 162.5-325 milligrams aspirin,” for “rofecoxib,”, “rofecoxib and 162.5-325 milligrams aspirin” for “rofecoxib”, “daily. […]” for “daily.”

Where [3] appears, read: Example 1, daily oral 25 milligrams VIOXX, treatment period three to four weeks.

The structures appear in SMILES notation.

As to `Cc1ccc(-c2cc(C(F)(F)F)nn2-c2ccc(S(N)(=O)=O)cc2)cc1` [CELEBREX, 4-[5-(4-methylphenyl)-3-(trifluoromethyl)-1H-pyrazol-1-yl]], in assay [1] (Example 4, daily oral 200 milligrams CELEBREX), the “intensity of the symptoms of a subsequent migraine” value is listed as “reduced intensity”. Also, the migraine symptoms entry in assay [1] (Example 4, daily oral 200 milligrams CELEBREX, treatment period ten to fourteen days) is recorded as “free of migraine symptoms”.

For `CS(=O)(=O)c1ccc(C2=C(c3ccccc3)C(=O)OC2)cc1` [VIOXX, 4-[4-(methylsulfonyl)phenyl]-3-phenyl-2(5H)-furanone], the migraine symptoms entry in assay [1] (Example 1, daily oral 25 milligrams VIOXX, first week of use) is listed as “free of migraine symptoms”. In assay [1] (setting [3]), the “frequency of migraine attacks” value was “reduced frequency” and the “intensity of the symptoms of subsequent migraine attacks” value is reported as “reduced intensity”. Further, in assay [1] (Example 12, continued daily 12.5-25 milligrams rofecoxib), the “frequency and intensity of the migraine attacks” value was “substantial decrease in the frequency and intensity”. Moreover, the “migraine symptoms before, during and after the scheduled clinic” value in assay [2] (Example 6, glare-induced migraine, oral 12.5 to 25 milligrams VIOXX the night before) is listed as “free of migraine symptoms”. Further, the “duration of therapeutic benefit” value in assay [2] (Example 8, further daily oral 12.5 to 25 milligrams VIOXX after red wine) is given as “extended for several days”. Besides, in assay [2] (Example 8, red wine-induced migraine, oral 12.5 to 25 milligrams VIOXX same day as consumption), the “migraine symptoms in the period when symptoms would normally be expected” value is listed as “either free of, or experienced substantially reduced, migraine symptoms”. Besides, the migraine attack symptoms entry in assay [2] (Example 10, at prodromal symptoms one-time 25-50 milligrams rofecoxib, then 12.5-25 milligrams daily) is “either free of, or has greatly reduced, migraine attack symptoms”. In assay [2] (Example 10, continued daily 12.5-25 milligrams rofecoxib), the “period of benefit with continued daily dosing” value was “several days (or longer)”. Moreover, the “intensity and length of the migraine attack symptoms” value in assay [2] (Example 12, 25-50 milligrams rofecoxib at onset of dysphasic aura) was “reduction in the intensity and length”.
